Earlier results on 2 compounds are cited in US20190231742A1, “NUTRITIONAL AGENTS USED TO PREVENT AND TREAT HYPERSENSITIVITY AND OTHER ALLERGIC-TYPE DISORDERS” (priority 2017, published 2019).

The structures appear in SMILES notation.

For data set [1] the following is noted: Alzheimer's disease patient; increasing quantities on successive days.
The conditions of data set [2]: taken by mouth; FIG. 3.
The conditions of data set [3]: oral administration of ~20 g; raised from ≤0.2 mM.

Regarding `CC(O)CCOC(=O)CC(C)O` [KME, (R)-3-hydroybutyl (R)-3-hydroxybutyrate], the water solubility entry is given as “somewhat water soluble”. The “time of peak blood D-βOHB level after ingestion” value in data set [1] is listed as “about 1 hour”. Moreover, the “rise in the blood level of D-βOHB and AcAc with increasing oral amount (mg/kg body weight)” value in data set [2] is reported as “increases proportionately”.
Regarding `CCCCCCCC(=O)OCC(COC(=O)CCCCCCC)OC(=O)CCCCCCC` [tricaprylin], the “plasma D-βOHB level” value in data set [3] is 0.5 to 0.7 mM.
